# In patent US20250129067A1 (Progentos Therapeutics, Inc., priority 2021, published 2025):
# Several values for one entry are separate records, joined by “and”; a condition that tells them apart may be missing. Equal entries are not always repeated. Where two headings read alike, the source gives them in different places.
# Columns and labels:
# PDGFRα = PDGFRα (Homo sapiens (Human), UniProt P16234); assay: PDGFRα kinase enzyme assay (Promega PDGFRα Kinase Enzyme System, ADP-Glo); assay type: biochemical; conditions: 150 uM ATP
# How it was run: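 Purified PDGFRα protein (20 ng) reacted with test compound per the Promega kinase system protocol. ADP formed was measured by ADP-Glo luminescence against a standard curve, giving IC50.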
# [1] = test system: GPR17+ cells (newly differentiated oligodendrocytes); assay: In vivo OPC differentiation, GPR17+ cells in brain; conditions: Mus musculus, po, 24 h, read-out: GPR17 Fold Induction (Over Vehicle)
# Procedure: The ability of newly constructed compounds to drive OPC differentiation and myelination in vivo was tested. The ability of these compounds to drive OPC differentiation in vivo was tested using GPR17 as an indicator of newly differentiated oligodendrocytes.
# Compounds were delivered PO or IP either QD or BID. Mice were dosed once, transiently, or continuously through the treatment period, which ranged from 1-3 days.
# Mice were euthanized by isoflurane exposure and transcardially perfused with 14 mL of PBS (Sigma Cat #P4417-50TAB) followed by 22 mL of 3.2% paraformaldehyde in PBS. The brains were removed and postfixed for a minimum of 24 hours in 20 mL of 3.2% paraformaldehyde.
# 50-micron floating sections were cut using a Leica VT1200S vibratome. Every 24th section, extending through the antero-posterior extent of the brain, was stained. The selected brain sections were washed three times in PBS for 3 minutes each. The floating sections were incubated in the primary antibodies (see Table 10, below) diluted in blocking solution overnight at room temperature on a shaker. […] The next day, the sections were again washed three times in PBS for 3 minutes each and then incubated in the secondary antibodies diluted in blocking solution for 2 hours at room temperature on a shaker. After incubation, the sections were washed three times in PBS for 3 minutes each and mounted on a slide to be imaged using the Olympus Slide Scanner VS200.
# The images were analyzed using a custom protocol developed using Visiopharm software to count GPR17+ cells. Cells were considered GPR17+ if they contained an Olig2 positive nucleus, and intense GPR 17 staining that filled their processes. Statistical analysis was done using one-way ANOVA with multiple comparison in GraphPad Prism software.
# [2] = test system: Oligodendrocyte progenitor cells (OPCs); assay: In vitro OPC differentiation assay, MBP expression (immunocytochemistry)
# Procedure: Cortices from postnatal day (P) 1-3 rats were dissected and collected into ice cold Hank's Balanced Salt Solution (HBSS). […] Briefly, the cortical cell suspension was centrifuged and washed with buffer (0.5% BSA in PBS) and labeled with Anti-A2B5 MicroBeads (10 μL beads per 1×10^7 cells) for 15 minutes at 4° C. Following the incubation, cells were washed once with BSA buffer to remove unlabeled beads. A2B^5 positive cells were eluted on the column using the AutoMACS® (Miltenyi, as per manufacturer's protocol using “possel-s” program). Eluted cells were further washed twice with OPC growth media. Cell count was performed using Countess III cell counter (ThermoFisher; AMQAX2000) and cells were plated.
# A2B5+ OPCs were plated in poly-d-lysine (PDL) coated T75 flask at a density of ˜3 million cells per flask. […] TrypLE was normalized by adding 10 mL growth media and cells were centrifuged at 1400 rpm for 10 minutes. […] The plates were allowed to sit at room temperature for 15 minutes to ensure proper dispersion of cells in a well. The plates were then transferred to the incubator (37° C.; 5% CO2).
# Cells were then incubated for 72 hours at 37° C., 5% CO2 before immunostaining for MBP marker expression.
# Following 72 hours of treatment, cells were fixed with 4% paraformaldehyde for 15 minutes then washed three times in DPBS. Prior to staining, cells were blocked for 15 minutes in 10% normal goat serum containing 1% BSA and 0.1% Triton X-100 in DPBS. Primary antibody (MBP @ 1:2000; Abcam AB7349) was applied to cells overnight at 4° C. in incubation solution containing 1% normal goat serum, 1% BSA, and 0.1% Triton X-100 in DPBS.
# The number of differentiated MBP+ cells was normalized to the total nuclei count and percent differentiated MBP+ cells were reported.
# [3] = test system: Oligodendrocyte progenitor cells (OPCs); assay: In vitro OPC differentiation assay, GPR17 expression (immunocytochemistry); conditions: 72 hours; for GPR17 Fold Induction (Over Vehicle; 3 μM): 3 μM (10× concentration, final 0.3 μM)
# [4] = 11-point dose response, 10,000 nM to 0.169 nM, BLQ = below limit of quantitation, read-out: IC50 Values on PDGFRα Kinase Inhibition, IC50
# [5] = 72 hours of treatment, fold change over vehicle
# [6] = 5 μM (10× concentration, final 0.5 μM), fold change over vehicle
# [7] = 20 ng purified PDGFRα, Poly (Glu4Tyr1) substrate, two hours, 11-point dose response, read-out: IC50 Values on PDGFRα Kinase Inhibition
# PDGFRα, sequence (P16234 24-1089): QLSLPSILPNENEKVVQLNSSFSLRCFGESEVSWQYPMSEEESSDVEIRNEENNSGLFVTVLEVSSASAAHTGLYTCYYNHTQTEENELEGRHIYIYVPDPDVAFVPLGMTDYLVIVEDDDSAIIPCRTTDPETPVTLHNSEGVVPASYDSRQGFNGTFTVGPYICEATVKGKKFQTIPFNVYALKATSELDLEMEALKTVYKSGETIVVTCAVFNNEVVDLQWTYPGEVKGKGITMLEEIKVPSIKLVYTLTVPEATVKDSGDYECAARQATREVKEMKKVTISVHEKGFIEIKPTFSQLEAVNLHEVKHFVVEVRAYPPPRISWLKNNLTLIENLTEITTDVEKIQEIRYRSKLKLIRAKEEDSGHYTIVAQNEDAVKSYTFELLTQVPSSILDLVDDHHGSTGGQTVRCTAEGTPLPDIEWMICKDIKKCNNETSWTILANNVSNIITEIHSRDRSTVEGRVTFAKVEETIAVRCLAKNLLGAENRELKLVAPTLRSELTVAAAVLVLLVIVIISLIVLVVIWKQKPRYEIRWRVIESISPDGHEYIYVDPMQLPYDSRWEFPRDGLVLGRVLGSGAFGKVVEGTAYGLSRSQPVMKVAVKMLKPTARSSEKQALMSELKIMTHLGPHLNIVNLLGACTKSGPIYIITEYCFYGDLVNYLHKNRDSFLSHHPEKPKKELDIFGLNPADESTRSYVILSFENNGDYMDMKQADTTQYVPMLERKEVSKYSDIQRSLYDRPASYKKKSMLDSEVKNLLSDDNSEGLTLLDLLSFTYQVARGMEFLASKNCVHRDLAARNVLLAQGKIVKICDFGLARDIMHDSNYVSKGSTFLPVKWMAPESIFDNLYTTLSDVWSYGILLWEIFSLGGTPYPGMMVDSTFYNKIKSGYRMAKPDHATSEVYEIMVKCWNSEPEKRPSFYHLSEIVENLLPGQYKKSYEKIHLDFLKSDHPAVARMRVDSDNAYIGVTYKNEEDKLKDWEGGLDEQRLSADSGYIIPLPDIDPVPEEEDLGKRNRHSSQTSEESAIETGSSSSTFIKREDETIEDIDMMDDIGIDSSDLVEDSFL
Structure (SMILES),IC50 (PDGFRα; [4]),fold induction at 3.3 mg/kg [1],"MBP Fold Induction (Over vehicle) [2, 5]",GPR17 Fold Induction (Over Vehicle; 3 μM) ([3]; fold change over vehicle),"GPR17 Fold Induction (Over Vehicle; 5 μM) [3, 6]",IC50 (PDGFRα; [7]),fold induction at 10 mg/kg [1],"MBP Fold Induction (Over vehicle) ([2]; primary rat OPCs, 72 hours, 3 uM (10x; final 0.3 uM per method), percent MBP+ cells as fold change over vehicle)","GPR17 Fold Induction (Over Vehicle; 5 μM) ([3]; primary rat OPCs, 5 μM (10x; final 0.5 μM per method), percent GPR17+ cells as fold change over vehicle)"
"Cn1cc(-c2ccc3c(N4CCN(C(=O)CCc5ccccc5)CC4)cnn3c2)cn1 [Compound 1, 6-(1-methyl-1H-pyrazol-4-yl)-3-[4-(3-phenylpropanoyl)piperazin-1-yl]pyrazolo[1,5-a]pyridine]",4010 nM,1.06,9.82,5.25,2.94,–,–,–,–
"Cn1cc(-c2ccc3c(N4CCN(C(=O)OCC(C)(C)C)CC4)cnn3c2)cn1 [Compound 3, 2,2-dimethylpropyl 4-[6-(1-methyl-1H-pyrazol-4-yl)pyrazolo[1,5-a]pyridin-3-yl]piperazine-1-carboxylate]",883 nM,1.45,1.56,4.12,3.69,< 1000 nM,–,–,–
"Cn1cc(-c2cnc3c(N4CCN(c5ncc(Cc6ccccc6)cn5)CC4)cnn3c2)cn1 [Compound 7, 3-[4-(5-benzylpyrimidin-2-yl)piperazin-1-yl]-6-(1-methyl-1H-pyrazol-4-yl)pyrazolo[1,5-a]pyrimidine]",2420 nM,–,2.1,7.38,4.40 and 4.45,–,12.9,–,–
"Cn1cc(-c2cn3ncc(N4CCN(C(=O)OC(C)(C)C)CC4)c3cn2)cn1 [Compound 44, Tert-butyl 4-[6-(1-methyl-1H-pyrazol-4-yl)pyrazolo[1,5-a]pyrazin-3-yl)piperazine-1-carboxylate]",638 nM,–,1.75,4.28,3.74,–,–,–,–
"C[C@@H](OC(=O)N1CCN(c2cnn3nc(-c4cnn(C)c4)ccc23)CC1)c1ccccc1 [Compound 50, (R)-1-phenylethyl 4-(6-(1-methyl-1H-pyrazol-4-yl)pyrazolo[1,5-b]pyridazin-3-yl)piperazine-1-carboxylate]",3140 nM,–,1.82,5.00,–,–,–,–,–
"Cn1cc(-c2ccc3c(C4=CCN(c5ncc(Cc6ccccc6)cn5)C4)cnn3c2)cn1 [Compound 51, 3-[1-(5-benzylpyrimidin-2-yl)-2,5-dihydro-1H-pyrrol-3-yl]-6-(1-methyl-1H-pyrazol-4-yl)pyrazolo[1,5-a]pyridine]",423 nM,–,2.41,5.14,2.52,–,–,–,–
"Cn1cc(-c2ccc3c(N4CCN(c5ncc(Cc6ccc(Cl)cc6)cn5)CC4)cnn3c2)cn1 [Compound 65, 3-{4-[5-(4-chlorobenzyl)pyrimidin-2-yl]piperazin-1-yl}-6-(1-methyl-1H-pyrazol-4-yl)pyrazolo[1,5-a]pyridine]",670 nM,–,1.71,5.18,–,–,–,–,–
"Cn1cc(-c2ccc3c(N4CCN(c5ncc(C(O)c6ccccc6)cn5)CC4)cnn3c2)cn1 (stereo not drawn) [Compound 71, (2-{4-[6-(1-Methyl-1H-pyrazol-4-yl)pyrazolo[1,5-a]pyridin-3-yl]piperazin-1-yl}pyrimidin-5-yl)(phenyl)methanol]",5.27 nM,–,25.00,9.66,–,–,–,–,–
"Cn1cc(-c2cnc3c(N4CCN(c5ncc(C(O)c6ccc(F)cc6)cn5)CC4)cnn3c2)cn1 (stereo not drawn) [Compound 74, (4-Fluorophenyl)(2-{4-[6-(1-methyl-1H-pyrazol-4-yl)pyrazolo[1,5-a]pyrimidin-3-yl]piperazin-1-yl}pyrimidin-5-yl)methanol]",563 nM,–,5.83,7.19,–,–,–,–,–
"Cn1cc(-c2ccc3c(NC4CN(c5ncc(Cc6ccccc6)cn5)C4)cnn3c2)cn1 [Compound 131, N-(1-(5-benzylpyrimidin-2-yl)azetidin-3-yl)-6-(1-methyl-1H-pyrazol-4-yl)pyrazolo[1,5-a]pyridin-3-amine]",3880 nM,–,2.49,6.36,–,–,–,–,–
"Cn1cc(-c2ccc3c(N4CCN(c5ccc(Cc6ccccc6)cc5)CC4)cnn3c2)cn1 [Compound 150, 3-(4-(4-benzylphenyl)piperazin-1-yl)-6-(1-methyl-1H-pyrazol-4-yl)pyrazolo[1,5-a]pyridine]",1140 nM,–,2.93,4.10,–,–,–,–,–
"CN(Cc1ccccc1)S(=O)(=O)N1CCN(c2cnn3cc(-c4cnn(C)c4)ccc23)CC1 [Compound 158, N-benzyl-N-methyl-4-(6-(1-methyl-1H-pyrazol-4-yl)pyrazolo[1,5-a]pyridin-3-yl)piperazine-1-sulfonamide]",> 10000 nM,–,4.88,4.57,–,–,–,–,–
"Cn1cc(-c2ccc3c(N4CCN(c5ncc(Cc6c[nH]c7ccccc67)cn5)CC4)cnn3c2)cn1 [Compound 173, 3-[(2-{4-[6-(1-methylpyrazol-4-yl)pyrazolo[1,5-a]pyridin-3-yl]piperazin-1-yl}pyrimidin-5-yl)methyl]-1H-indole]",1100 nM,–,0.49,6.75,–,–,–,–,–
"CC(C)C(O)c1cnc(N2CCN(c3cnn4cc(-c5cnn(C)c5)ccc34)CC2)nc1 (stereo not drawn) [Compound 176, 2-methyl-1-(2-{4-[6-(1-methyl-1H-pyrazol-4-yl)pyrazolo[1,5-a]pyridin-3-yl]piperazin-1-yl}pyrimidin-5-yl)propan-1-ol]",2080 nM,–,1.48,3.90,–,–,–,–,–
"CC(C)Cc1cnc(N2CCN(c3cnn4cc(-c5cnn(C)c5)ccc34)CC2)nc1 [Compound 189, 3-(4-(5-isobutylpyrimidin-2-yl)piperazin-1-yl)-6-(1-methyl-1H-pyrazol-4-yl)pyrazolo[1,5-a]pyridine]",5280 nM,–,4.70,7.61,–,–,–,–,–
CC(C)(C)OC(=O)N1CCN(c2cnn3cc(-c4cnn(C5CCOCC5)c4)ccc23)CC1 [Compound 235],467 nM,–,10.35,9.32,–,–,–,–,–
"Cn1cc(-c2ccc3c(N4CCN(c5ncc(C(O)c6ccccc6)o5)CC4)cnn3c2)cn1 (stereo not drawn) [Compound 248, (2-(4-(6-(1-methyl-1H-pyrazol-4-yl)pyrazolo[1,5-a]pyridin-3-yl)piperazin-1-yl)oxazol-5-yl)(phenyl)methanol]",1190 nM,–,16.04,3.90,–,–,–,–,–
"c1ccc(Cc2cnc(N3CCN(c4cnn5cc(-c6cn[nH]c6)ccc45)CC3)nc2)cc1 [Compound 255, 3-[4-(5-benzylpyrimidin-2-yl)piperazin-1-yl]-6-(1H-pyrazol-4-yl)pyrazolo-[1,5-a]pyridine]",1140 nM,–,2.58,8.56,–,–,–,–,–
"C=C(c1ccc(F)cc1)c1cnc(N2CCN(c3cnn4cc(-c5cnn(C)c5)ccc34)CC2)nc1 [Compound 256, 3-(4-(5-(1-(4-fluorophenyl)vinyl)pyrimidin-2-yl)piperazin-1-yl)-6-(1-methyl-1H-pyrazol-4-yl)pyrazolo[1,5-a]pyridine]",3200 nM,–,8.70,4.15,–,–,–,–,–
"COC(c1ccc(F)cc1)c1cnc(N2CCN(c3cnn4cc(-c5cnn(C)c5)ccc34)CC2)nc1 (stereo not drawn) [Compound 263, 3-(4-(5-((4-fluorophenyl)(methoxy)methyl)pyrimidin-2-yl)piperazin-1-yl)-6-(1-methyl-1H-pyrazol-4-yl)pyrazolo[1,5-a]pyridine]",517 nM,–,12.61,5.98,–,–,–,–,–
"CC(=O)OC(c1ccc(F)cc1)c1cnc(N2CCN(c3cnn4cc(-c5cnn(C)c5)ccc34)CC2)nc1 (stereo not drawn) [Compound 264, (4-fluorophenyl)(2-(4-(6-(1-methyl-1H-pyrazol-4-yl)pyrazolo[1,5-a]pyridin-3-yl)piperazin-1-yl)pyrimidin-5-yl)methyl acetate]",26.8 nM,–,5.22,6.72,–,–,–,–,–
"C[C@@H](OC(=O)N1CCN(c2cnn3cc(-c4cnn(C)c4)ccc23)CC1)c1ccc(F)c(F)c1 [Compound 266, (1R)-1-(3,4-difluorophenyl]ethyl 4-[6-(1-methyl-1H-pyrazol-4-yl)pyrazolo[1,5-a]pyridin-3-yl]piperazine-1-carboxylate]",2.69 nM,–,14.20,4.88,–,–,–,–,–
"CN(C[C@@H]1COCCO1)S(=O)(=O)Nc1ccc2ccc3ncc(-c4cnn(C)c4)cc3c(=O)c2c1 [MK 2461, reference compound]",–,–,–,–,–,10.8 nM,–,6.11,7.10
